Test systems include ACHN renal; OVCAR-5 ovarian; COLO 205 colon; MDA-MB-231 breast; KM12 colon; SK-MEL-5 melanoma; SK-OV-3 ovarian; MALME-3M melanoma; MOLT-4 leukemia; PC-3 prostate; SNB-75 CNS; 786-0 renal; A549 NSCLC.
Common to all, as to assay: DTP human tumour cell line panel, 48 h

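These data come from cells grown in 96-well plates and exposed to compound for 48 hours at five concentrations. Definition used: TGI = concentration required for complete inhibition of growth.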

`COc1ccc2c(c1)CCCN1CCc3ccccc3C21` (centres undefined): the TGI was above 100 µM in the test with ACHN renal; above 100 µM in the test with OVCAR-5 ovarian; 59.3 µM in the test on COLO 205 colon; 72.2 µM in the test on MDA-MB-231 breast; above 100 µM in the test on KM12 colon; above 100 µM in the test on SK-MEL-5 melanoma. For the same molecule, the TGI in the test with SK-OV-3 ovarian is above 100 µM; in the test with MALME-3M melanoma, above 100 µM; in the test on MOLT-4 leukemia, above 100 µM; with PC-3 prostate it was above 100 µM; with SNB-75 CNS it was 66.1 µM; with 786-0 renal, 69.9 µM. The molecule also returned a TGI in the test with A549 NSCLC above 100 µM.

With `COc1ccc(-c2c3c(n(C4OC(CO)C(O)C(O)C4O)c(=S)c2C#N)CCCC3)cc1` (centres undefined), the TGI in the test on ACHN renal, in the test on OVCAR-5 ovarian, in the test with COLO 205 colon, with MDA-MB-231 breast, with KM12 colon and in the test on SK-MEL-5 melanoma was above 100 µM in each case. The TGI with SK-OV-3 ovarian was above 100 µM; in the test on MALME-3M melanoma, above 100 µM; in the test on MOLT-4 leukemia it was above 100 µM; in the test on PC-3 prostate, above 100 µM; with SNB-75 CNS, 18.7 µM; in the test with 786-0 renal, above 100 µM. For the same molecule, the TGI with A549 NSCLC was above 100 µM.

For `O=C(N/N=C/c1cc(Br)cc(Br)c1[O-])c1ccccc1O.O=C(N/N=C/c1cc(Br)cc(Br)c1[O-])c1ccccc1O.[Zn+2]`, the total growth inhibition concentration (TGI) stood at 15 µM with ACHN renal; 13.1 µM in the test on OVCAR-5 ovarian; 20.9 µM with COLO 205 colon; 15.9 µM in the test on KM12 colon; 2.58 µM with SK-MEL-5 melanoma; 8.49 µM in the test on SK-OV-3 ovarian. Moreover, the TGI in the test on MALME-3M melanoma was 8.77 µM; with MOLT-4 leukemia it was above 100 µM; in the test with SNB-75 CNS, 18.8 µM; with A549 NSCLC, 21.6 µM.

As to `O=C1CC(CC(=O)c2ccc(Br)cc2)C(=O)/C1=C(/O)c1ccc(Br)cc1` (centres undefined), the TGI in the test with ACHN renal, in the test on OVCAR-5 ovarian, with COLO 205 colon, in the test on MDA-MB-231 breast, in the test on KM12 colon and with SK-MEL-5 melanoma was above 100 µM in each case. In addition, the concentration for total growth inhibition (TGI) in the test on SK-OV-3 ovarian, with MALME-3M melanoma, in the test with MOLT-4 leukemia, in the test with PC-3 prostate, in the test with 786-0 renal and in the test on A549 NSCLC was above 100 µM each time.

As to `CC(C)(Cl)C(Br)CCC(Br)(CCl)C(Cl)CBr` (centres undefined), the TGI with ACHN renal, with OVCAR-5 ovarian, with COLO 205 colon, in the test on MDA-MB-231 breast, with KM12 colon and in the test with SK-MEL-5 melanoma was above 10 µM throughout. The TGI with SK-OV-3 ovarian, in the test on MALME-3M melanoma, with MOLT-4 leukemia, in the test with PC-3 prostate, with SNB-75 CNS and with 786-0 renal was above 10 µM each time.

Turning to `CC(=O)OCC1OC(n2c3c(c(-c4ccc(Cl)cc4)c(C#N)c2=S)CCCC3)C(OC(C)=O)C(OC(C)=O)C1OC(C)=O` (centres undefined), the TGI with ACHN renal is above 100 µM; with OVCAR-5 ovarian, above 100 µM; in the test on COLO 205 colon, above 100 µM; in the test on MDA-MB-231 breast, above 100 µM; in the test with KM12 colon it was above 100 µM; in the test on SK-MEL-5 melanoma it was 58.6 µM. For the same molecule, the concentration for total growth inhibition (TGI) in the test with SK-OV-3 ovarian is above 100 µM; with MALME-3M melanoma, above 100 µM; in the test on MOLT-4 leukemia, above 100 µM; in the test on PC-3 prostate, 69.1 µM; with SNB-75 CNS it was 79.6 µM; with 786-0 renal, above 100 µM. The TGI in the test with A549 NSCLC is above 100 µM.

`COc1cc(OC)cc(-c2cc(=O)c3cc4c(cc3[nH]2)OCO4)c1`: the TGI in the test with ACHN renal was above 35.5 µM; in the test with OVCAR-5 ovarian, above 63.1 µM; in the test with COLO 205 colon, 0.471 µM; with SK-MEL-5 melanoma, 8.23 µM; in the test on SK-OV-3 ovarian, 4.49 µM; in the test on MALME-3M melanoma it was above 100 µM. For the same molecule, the TGI is above 51 µM with MOLT-4 leukemia, 43.7 µM in the test with SNB-75 CNS, 33 µM in the test with 786-0 renal and 45.1 µM with A549 NSCLC.

On to `CC(=O)O[C@H]1C(=O)[C@@]2(C)[C@H]([C@H](OC(=O)c3ccccc3)[C@]3(O)C[C@H](OC(=O)[C@H](O)[C@@H](NC(=O)c4ccco4)c4ccccc4)C(C)=C1C3(C)C)[C@]1(OC(C)=O)CO[C@@H]1C[C@@H]2O`, for which the TGI in the test on ACHN renal was above 12.5 µM; in the test on OVCAR-5 ovarian it was above 12.5 µM; in the test on MDA-MB-231 breast, above 12.5 µM; in the test on KM12 colon it was above 12.5 µM; in the test with SK-MEL-5 melanoma, above 12.5 µM; in the test on SK-OV-3 ovarian, 0.0107 µM. The TGI in the test on MOLT-4 leukemia, with PC-3 prostate, in the test on 786-0 renal and in the test on A549 NSCLC was above 12.5 µM each time.

With `Cc1cc(=O)oc2cc(OCC(O)COC(C)C)ccc12` (centres undefined), the total growth inhibition concentration (TGI) in the test on ACHN renal, in the test with OVCAR-5 ovarian, in the test on COLO 205 colon, in the test on MDA-MB-231 breast, in the test with KM12 colon and in the test with SK-MEL-5 melanoma was above 100 µM in each case. For the same molecule, the TGI with SK-OV-3 ovarian, with MALME-3M melanoma, in the test with MOLT-4 leukemia, with PC-3 prostate, with SNB-75 CNS and in the test on 786-0 renal was above 100 µM each time. In the test with A549 NSCLC, this molecule had a TGI above 100 µM.

Turning to `S=c1ncc2c([nH]1)C1c3ccccc3C2c2ccccc21`, the TGI in the test with ACHN renal, in the test on OVCAR-5 ovarian, in the test on COLO 205 colon, with KM12 colon, in the test on SK-MEL-5 melanoma and with MALME-3M melanoma was above 100 µM in each case. Besides, the TGI in the test with MOLT-4 leukemia is above 100 µM; in the test on SNB-75 CNS, 77.2 µM; in the test with 786-0 renal it was above 100 µM; with A549 NSCLC, above 100 µM.

As to `C=CC1CN(C(=O)OCC)N(C(=O)OCC)C1CCc1ccccc1` (centres undefined), the TGI in the test on ACHN renal, with OVCAR-5 ovarian, in the test on COLO 205 colon, in the test with MDA-MB-231 breast, in the test with KM12 colon and in the test with SK-MEL-5 melanoma was above 100 µM in each case. In addition, the TGI in the test on SK-OV-3 ovarian, with MALME-3M melanoma, in the test on MOLT-4 leukemia, in the test on PC-3 prostate, with SNB-75 CNS and in the test on 786-0 renal was above 100 µM in each case. The molecule further came in with a total growth inhibition concentration (TGI) in the test on A549 NSCLC above 100 µM.

(Values after PubChem BioAssay (NCI).)
